Values after ≈ are worked out from the molar mass of the structure shown.
Columns and labels:
[1] = tested on: tobacco cutworm; test: Test 1: Effect on Tobacco Cutworm (leaf immersion), mortality after 24 hours; format: in vivo; details: second-instar larvae, 25° C
Method in brief: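 Second-instar tobacco cutworm larvae were kept at 25 °C on air-dried sweet-potato leaves that had been immersed for 10 s in test dilutions of 100 or 20 ppm from an emulsifiable concentrate. Mortality was scored at 24 h as the mean of three cups.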

[2] = tested on: tobacco cutworm; test: Test 2: Tobacco Cutworm Larva Dipping Test, mortality after 24 hours; format: in vivo; details: 24 hours
Method in brief: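 Second- and fifth-instar larvae dipped 5 s in a water dilution of an emulsifiable concentrate at 100 or 20 ppm, blotted, then held on artificial diet at 25° C. Dead and living larvae counted after 24 hours; mortality averaged over three cups.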

[3] = tested on: resistant green rice leafhopper (collected at Nakagawara); test: Test 3: Effect on Resistant Green Rice Leafhopper (collected at Nakagawara); format: in vivo, Nephotettix cincticeps Uhler (Green rice leafhopper); details: Nephotettix cincticeps, 24 h, read-out: Mortality (%), Green Rice Leafhopper Collected at Nakagawara
Method in brief: (§1)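 Ten adult females per pot, either resistant (Nakagawara) or sensitive (Chigasaki), were caged on air-dried rice seedlings (2–3 leaves) sprayed at 3 ml/pot with 100 or 20 ppm of an emulsifiable concentrate dilution. Dead and living insects were counted after 24 hours; mortality is the mean of three pots.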

[4] = tested on: sensitive green rice leafhopper (collected at Chigasaki); test: whole plant or invertebrate; format: in vivo; details: Nephotettix cincticeps, sensitive female adults, 24 hours, read-out: Mortality (%), Green Rice Leafhopper Collected at Chigasaki
Method in brief: as §1

[5] = tested on: diamond back moth; test: Test 4: Effect on Diamond Back Moth; format: in vivo; details: Plutella, third-instar larvae, 24 hours, read-out: Mortality (%)
Method in brief: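 Compound formulated as an emulsifiable concentrate, diluted in water to 100 or 20 ppm and sprayed at 3 ml per cup onto cabbage leaves holding 10 third-instar larvae. Mortality counted after 24 hours; mean of three cups.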

[6] = tested on: green peach aphid; test: Test 5: Effect on Green Peach Aphid; format: in vivo; details: Myzus persicae; 100 ppm; mortality class; 24 hours; read-out: Insecticidal Activity
Method in brief: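 Eggplant seedlings with 3–4 leaves were infested with aphids and sprayed with a 100 ppm aqueous dilution of an emulsifiable concentrate, then kept in a glasshouse. Living insects were counted after 24 h. Mortality is averaged over three pots and graded A (>95%), B (80–95%), C (50–80%) or D (<50%).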

[7] = tested on: two-spotted spider mite; test: Test 6: Effect on Two-Spotted Spider mite Adults; format: in vivo; details: Tetranychus urticae; 100 ppm; adults; 24 hours; 25° C; read-out: Mortality (%)
Experimental: To a mixture of 20 parts of the compound of the present invention and 20 parts of Sorpol SM-200 (registered tradename for the product supplied by Toho Chemical Industrial Co., Ltd.) was added 60 parts of xylol, and the mixture was suffciently blended. The obtained emulsifiable concentrate was diluted at a predetermined concentration with distilled water, and the obtained dilution was used.
A kidney bean leaf disc perforated with a cork borer (15 mm in diameter) was placed on water-impregnated absorbent cotton (2 cm×2 cm), and 10 adults of two-spotted spider mite were set free. A chemical dilution having a concentration of 100 ppm was applied with an applicator in an amount of 3 ml.
The leaf disc-placed absorbent cotton was placed in a thermostat chamber maintained at 25° C. After 24 hours, the number of killed adults was counted and the mortality was calculated. The test was made on three leaf discs and the average value was calculated.

[8] = tested on: German cockroach; test: Test 7: Effect on German Cockroach; format: in vivo; details: Blattella germanica, male adults, agonized and killed after 24 hours, read-out: Mortality (%); for mortality at 10 mg/m2: 10 mg/m^2; for mortality at 50 mg/m2: 50 mg/m^2
Method in brief: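 Petri dish floors were treated with 50 or 10 mg/m2 of compound (diluted emulsifiable concentrate) and air-dried. Ten male adult German cockroaches per dish were held at 25° C. Agonized and dead insects were counted after 24 hours, averaging two dishes.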

[9] = Test 8: Fish Toxicity; format: in vivo; details: carp, water; concentration at which 1/2 of the test fishes were killed within 48 hours; read-out: Fish Toxicity, TLm48
Experimental: A water tank having a width of 60 cm, a length of 30 cm and a height of 40 cm was filled with water, and 10 yearling carps having a body length of about 5 cm were set free in the tank and adapted to the environment in the tank. A test compound was applied so that the concentration in water was 10, 1 or 0.1 ppm. After 48 hours, the numbers of killed and living carps were counted and the influences on the fishes were examined.

[10] = Test 9: Toxicity Test (acute oral toxicity, mice); details: mouse, in vivo, po
Experimental: A predetermined amount of a solution or suspension of a test compound in corn oil was orally administered to male mice having a body weight of 19 to 23 g (0.2 ml per 10 g of the body weight). After 7 days, the number of killed mice was counted and the influences on the mice were examined.

[11] = fifth-instar larvae, read-out: Motality (%), Fifth-Instar Larvae
[12] = second-instar larvae, read-out: Motality (%), Second-Instar Larvae

Row | SMILES | mortality at 20 ppm [1] [%] | mortality at 100 ppm [1] [%] | mortality at 20 ppm [2, 11] [%] | mortality at 20 ppm [2, 12] [%] | mortality at 100 ppm [2, 11] [%] | mortality at 100 ppm [2, 12] [%] | mortality at 20 ppm [3] [%] | mortality at 100 ppm [3] [%] | mortality at 20 ppm [4] [%] | mortality at 100 ppm [4] [%] | mortality at 20 ppm [5] [%] | mortality at 100 ppm [5] [%] | mortality at 100 ppm [6] [%] | mortality at 100 ppm [7] [%] | mortality at 10 mg/m2 [8] [%] | mortality at 50 mg/m2 [8] [%] | LC50 at 48 h [9] [µg/mL] | LD50 at 168 h [10] [mg/kg]
1 | CC(C)(COCc1cccc(Oc2ccccc2)c1)c1ccc(Cl)c(Cl)c1 [Compound 48, 3-Phenoxybenzyl 2-(3,4-dichlorophenyl)-2-methylpropyl ether] | 80 | 100 | 60 | 70 | 70 | 90 | 100 | 100 | 100 | 100 | 100 | 100 | > 95 | 100 | 100 | 100 | > 10 | > 500
2 | COc1ccc(C(C)(C)COCc2cccc(Oc3ccccc3)c2)cc1 [Compound 1, 3-Phenoxybenzyl 2-(4-methoxyphenyl)-2-methyl propyl ether] | – | – | – | – | – | – | 100 | 100 | 100 | 100 | – | – | 80 to 95 | 100 | 100 | 100 | > 10 | > 500
3 | CC(C)(COCc1cccc(Oc2ccc(F)cc2)c1)c1ccc(OC(F)F)cc1 [Compound 11, 3-(4-Fluorophenoxy)benzyl 2-(4-difluoromethoxyphenyl)-2-methylpropyl ether] | 100 | 100 | 70 | 90 | 100 | 100 | 100 | 100 | 100 | 100 | 90 | 100 | > 95 | 100 | 100 | 100 | 0.01 to 0.05 (≈ 0.024 to 0.12 µM) | > 500
4 | CC(C)(CSCc1cccc(Oc2ccccc2)c1)c1ccc(Cl)cc1 [Compound 20, 3-Phenoxybenzyl 2-(4-chlorophenyl)-2-methylpropyl thioether] | 100 | 100 | 80 | 90 | 100 | 100 | 80 | 100 | 50 | 100 | 100 | 100 | > 95 | 100 | – | – | > 10 | > 500
5 | CCCCOc1ccc(C(C)(C)COCc2cccc(Oc3ccccc3)c2)cc1 [Compound 69, 3-Phenoxybenzyl 2-[4-(n-butoxy)phenyl]-2-methylpropyl ether] | – | – | – | – | – | – | – | – | – | – | – | – | > 95 | 60 | – | – | > 1 | > 500
6 | CC(C)(COCc1cccc(Oc2ccccc2)c1)c1ccc(Cl)cc1 [Compound 49, 3-Phenoxybenzyl 2-(4-chlorophenyl)-2-methylpropyl ether] | 100 | 100 | 100 | 100 | 100 | 100 | 100 | 100 | 100 | 100 | 100 | 100 | > 95 | 100 | 100 | 100 | > 10 | > 500
7 | CC(C)Oc1ccc(C(C)(C)COCc2cccc(Oc3ccccc3)c2)cc1 [Compound 59, 3-Phenoxybenzyl 2-(4-isopropoxyphenyl)-2-methylpropyl ether] | – | – | 100 | 100 | 100 | 100 | 100 | 100 | 100 | 100 | 85 | 100 | > 95 | 100 | 100 | 100 | – | > 500
8 | CC(C)(COCc1cccc(Oc2ccccc2)c1)c1ccc(OC(F)F)cc1 [Compound 18, 3-phenoxybenzyl 2-(4-difluoromethoxyphenyl)-2-methylpropyl ether] | 100 | 100 | 100 | 100 | 100 | 100 | 100 | 100 | 100 | 100 | 100 | 100 | > 95 | 100 | 100 | 100 | – | > 500
9 | CC(C)(COCc1cccc(Oc2ccccc2)c1)c1ccc2c(c1)OCO2 [Compound 7, 3-Phenoxybenzyl 2-(3,4-methylenedioxyphenyl)-2-methylpropyl ether] | 80 | 100 | 50 | 60 | 100 | 100 | 100 | 100 | 90 | 100 | 80 | 100 | > 95 | 100 | 100 | 100 | > 10 | > 500
10 | COc1ccc(Oc2cccc(COCC(C)(C)c3ccc(Cl)c(Cl)c3)c2)cc1 [Compound 41, 3-(4-methoxyphenoxy)benzyl 2-(3,4-dichlorophenyl)-2-methylpropyl ether] | – | – | – | – | – | – | 100 | 100 | 100 | 100 | – | – | > 95 | 100 | 100 | 100 | > 10 | > 500
11 | CC(C)(C)c1ccc(C(C)(C)COCc2cccc(Oc3ccccc3)c2)cc1 [Compound 105, 3-Phenoxybenzyl 2-(4-tert-butylphenyl)-2-methylpropyl ether] | – | – | – | – | – | – | – | – | – | – | – | – | 80 to 95 | 100 | – | – | > 1 | > 500
